In one assay the target is T1, Caspase-1 (Homo sapiens, UniProt P29466).
T1 sequence (P29466 whole entry): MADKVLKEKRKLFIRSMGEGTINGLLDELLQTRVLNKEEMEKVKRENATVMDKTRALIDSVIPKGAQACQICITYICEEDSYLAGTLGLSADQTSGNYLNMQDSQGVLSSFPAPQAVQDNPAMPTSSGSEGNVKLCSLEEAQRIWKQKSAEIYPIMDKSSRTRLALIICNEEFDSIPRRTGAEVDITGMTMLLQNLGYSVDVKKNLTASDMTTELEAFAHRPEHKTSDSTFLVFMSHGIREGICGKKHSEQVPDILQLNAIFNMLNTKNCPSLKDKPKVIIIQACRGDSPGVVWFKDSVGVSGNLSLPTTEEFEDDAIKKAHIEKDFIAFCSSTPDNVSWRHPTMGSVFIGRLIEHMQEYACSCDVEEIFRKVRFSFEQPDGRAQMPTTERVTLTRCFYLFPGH
Description: Antiinflammatory activity measured as the concentration required to inhibit IL-1 beta converting enzyme.

For the next assay, the target named is T2, Caspase-1 (Homo sapiens) (UniProt P29466).
T2 sequence (whole entry): T1 sequence (P29466 whole entry)
Description: Inactivation of IL-1 beta converting enzyme.

Broadly, the IC50 is the concentration needed to halve the response being measured. In turn, `NC(=O)c1cc(-c2ccc(Br)cc2)nnc1Cl` yielded a half-inhibitory concentration (IC50) at Caspase-1 of 5 µM. Consider `COc1ccc(-c2cc(C(N)=O)c(Cl)nn2)cc1`, for which, on Caspase-1, the midpoint of inhibition, the IC50, lay at 66 µM. Also, the k obs / 1 on Caspase-1 (Homo sapiens) was under 5 M⁻¹ s⁻¹.

`COc1nnc(-c2ccncc2)cc1C(N)=O` returned an IC50 on Caspase-1 of over 250 µM. As to `NC(=O)c1cc(-c2ccncc2)nnc1Cl`, the IC50 against Caspase-1 amounted to 3 µM. Besides, at Caspase-1 (Homo sapiens), the k obs / 1 stood at 70 M⁻¹ s⁻¹.

At Caspase-1, `N#Cc1cc(-c2ccncc2)nnc1Cl` registered a half-inhibitory concentration (IC50) of 110 µM. The same measure, in the same setting: the same measure for `CN(C)C(=O)c1cc(-c2ccncc2)nnc1Cl`: over 250 µM.

`NC(=O)c1cc(-c2ccc(NS(=O)(=O)c3ccccc3)cc2)nnc1Cl` gave an IC50 on Caspase-1 of 18 µM. On Caspase-1, `NC(=O)c1cc(-c2ccncc2)cnc1Cl` came in with an IC50 of over 250 µM.

`CCOC(=O)c1cc(-c2ccncc2)nnc1Cl` yielded an IC50 against Caspase-1 of 13 µM. At Caspase-1 (Homo sapiens), this molecule showed a k obs / 1 of 10 M⁻¹ s⁻¹. The matching figures for `O=C(NCc1ccccc1)c1cc(-c2ccncc2)nnc1Cl`: 4 µM and 50 M⁻¹ s⁻¹. `NC(=O)c1cc(-c2ccc(Cl)cc2)nnc1Cl` returned an IC50 against Caspase-1 of 5 µM. `NC(=O)c1cc(-c2ccc(F)c(Cl)c2)nnc1Cl`: the midpoint of inhibition against Caspase-1, the IC50, lay at 5.5 µM. The molecule further came in with a k obs / 1 on Caspase-1 (Homo sapiens) of 45 M⁻¹ s⁻¹.

For `NC(=O)c1cnnc(-c2ccncc2)c1`, on Caspase-1, the concentration for half-maximal inhibition (IC50) is over 250 µM. Molecule `CSc1nnc(-c2ccncc2)cc1C(N)=O` came in with an IC50 on Caspase-1 of over 250 µM. `N#Cc1ccc(-c2cc(C(N)=O)c(Cl)nn2)cc1` showed an IC50 against Caspase-1 of 1.5 µM. `NC(=O)c1cc(-c2ccccc2)nnc1Cl` showed an IC50 against Caspase-1 of 57 µM. On Caspase-1 (Homo sapiens), the k obs / 1 is under 5 M⁻¹ s⁻¹. Take `CCOC(=O)CNC(=O)c1cc(-c2ccncc2)nnc1Cl`: on Caspase-1, the IC50 worked out at 2 µM. For `Cc1c(-c2ccc(Cl)cc2)nnc(Cl)c1C(N)=O`, the IC50 on Caspase-1 was over 250 µM. Same read-out and setting: the value for `CNC(=O)c1cc(Cl)nnc1Cl` was over 250 µM. `N#Cc1ccc(-c2cc(C(N)=O)c(Cl)nn2)cc1Cl` displayed an IC50 at Caspase-1 of 0.5 µM. Besides, on Caspase-1 (Homo sapiens), the k obs / 1 amounted to 225 M⁻¹ s⁻¹. With `NC(=O)c1cc(-c2ccc([N+](=O)[O-])cc2)nnc1Cl`, it took 0.7 µM to reach half-maximal inhibition on Caspase-1 (IC50). Molecule `CS(=O)(=O)c1c(F)cc(-c2cc(C(N)=O)c(Cl)nn2)cc1F` had an IC50 at Caspase-1 of 0.3 µM. The molecule also gave a k obs / 1 at Caspase-1 (Homo sapiens) of 355 M⁻¹ s⁻¹. The matching figures for `NC(=O)c1cc(-c2ccc(C(F)(F)F)cc2)nnc1Cl`: 5 µM and 40 M⁻¹ s⁻¹. The matching figures for `CNC(=O)c1cc(-c2ccncc2)nnc1Cl`: 10 µM and 25 M⁻¹ s⁻¹. The matching figures for `O=C(NCc1ccc(Cl)cc1Cl)c1cc(-c2ccncc2)nnc1Cl`: 2 µM and 140 M⁻¹ s⁻¹.

Source of the values: ChEMBL document CHEMBL1129904, “3-chloro-4-carboxamido-6-arylpyridazines as a non-peptide class of interleukin-1 converting enzyme inhibitor” (Bioorg Med Chem Lett, 1997).
